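Cultured in 96-well plates, cells were exposed to test compound for 48 hours across five concentrations. GI50 = concentration required for 50% inhibition of growth.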 Calls of active or inactive are those of the source. Cut-off read from the data, not from the text of the source: active = GI50 up to about 1.1 µM and inactive = higher.

Test systems include IGROV-1; HT-29; U-251; SK-MEL-5; NCI-H460; OVCAR-5; SK-OV-3; SR; MOLT-4; SF-268; OVCAR-8; MDA-N; HCT-116; RXF 393; NCI-H226; UO-31; SF-539; HL-60; NCI-H23.
Common to all, as to experiment: growth of human tumour cells (NCI), 48 h

As for `Cc1ccc2c(c1)C(=S)N1CSCC1c1nncn1-2` (centres undefined), the GI50 in the assay with IGROV-1, in the assay on HT-29, in the assay on U-251, in the assay with SK-MEL-5, with NCI-H460 and in the assay with OVCAR-5 was > 100 µM (inactive) in each case. For the same compound, the GI50 in the assay on SK-OV-3, in the assay with SR, in the assay on MOLT-4, in the assay on SF-268, with OVCAR-8 and with MDA-N was > 100 µM (inactive) in each case. Further, the GI50 in the assay on HCT-116, with RXF 393, in the assay on NCI-H226 and with UO-31 was > 100 µM (inactive) throughout.
For the compound `COc1cc(OC)c2c3c(OC)cc(OC)c4c(=O)c(O)c(C[C@@H](C)O)c(c5c(C[C@@H](C)O)c(O)c(=O)c1c25)c43`, the GI50 is 16.6 µM (inactive) in the assay on IGROV-1; 18.6 µM (inactive) with HT-29; 23.5 µM (inactive) with U-251; 14.2 µM (inactive) in the assay on SK-MEL-5; 24.8 µM (inactive) with SF-539; 27.2 µM (inactive) in the assay on NCI-H460. For the same compound, the GI50 in the assay with OVCAR-5 is 30.6 µM (inactive); in the assay with SK-OV-3 it was 62.2 µM (inactive); in the assay with HL-60, 11.3 µM (inactive); in the assay with MOLT-4 it was 15.3 µM (inactive); with SF-268, 18.9 µM (inactive); in the assay on OVCAR-8, 19.8 µM (inactive). Moreover, the GI50 was 18.7 µM (inactive) in the assay on MDA-N; 16 µM (inactive) with HCT-116; 22.4 µM (inactive) in the assay on RXF 393; 19.6 µM (inactive) in the assay with NCI-H226; 19 µM (inactive) in the assay on NCI-H23; 30.7 µM (inactive) in the assay on UO-31.
In the case of `Cc1ccc(CC2(C(=O)O)Cc3ccc(C)cc3C2)cc1` (centres undefined), the GI50 in the assay with IGROV-1 was > 100 µM (inactive); with HT-29, > 100 µM (inactive); in the assay on U-251, 71.3 µM (inactive); in the assay with SK-MEL-5, > 100 µM (inactive); in the assay with SF-539 it was > 100 µM (inactive); with NCI-H460, > 100 µM (inactive). Besides, the GI50 in the assay on OVCAR-5, in the assay on SK-OV-3, in the assay on HL-60, with SR, in the assay on MOLT-4 and with SF-268 was > 100 µM (inactive) in each case. Moreover, the GI50 in the assay with OVCAR-8 is > 100 µM (inactive); in the assay with MDA-N, > 100 µM (inactive); in the assay on HCT-116 it was > 100 µM (inactive); in the assay on NCI-H226, > 100 µM (inactive); with NCI-H23, 75.5 µM (inactive); with UO-31, > 100 µM (inactive).
Consider `CC1(C)O[C@H]2[C@@H]3N=C(c4ccccc4)O[C@@H]3C=C[C@H]2O1`, for which the GI50 with IGROV-1, in the assay with HT-29, with U-251, in the assay with SK-MEL-5, with SF-539 and with OVCAR-5 was > 100 µM (inactive) each time. The GI50 is > 100 µM (inactive) in the assay on SK-OV-3; > 100 µM (inactive) in the assay with HL-60; > 100 µM (inactive) in the assay with SR; > 100 µM (inactive) in the assay on MOLT-4; 17.6 µM (inactive) in the assay on SF-268; > 100 µM (inactive) in the assay on OVCAR-8. Moreover, the GI50 in the assay on MDA-N, in the assay on HCT-116, in the assay on NCI-H226, with NCI-H23 and in the assay with UO-31 was > 100 µM (inactive) throughout.
`CC(=O)/C(=C/N1CC(=O)NC1=S)C(=O)Nc1ccccc1C`: the GI50 in the assay on IGROV-1, in the assay with HT-29, in the assay with U-251, with SK-MEL-5, with SF-539 and in the assay with NCI-H460 was > 100 µM (inactive) each time. Moreover, the GI50 with OVCAR-5, in the assay with SK-OV-3, with HL-60, with MOLT-4, in the assay with SF-268 and with OVCAR-8 was > 100 µM (inactive) throughout. The GI50 was > 100 µM (inactive) in the assay on MDA-N; > 100 µM (inactive) in the assay on HCT-116; > 100 µM (inactive) in the assay on RXF 393; > 10 µM (inactive) with NCI-H226; > 100 µM (inactive) with NCI-H23; > 100 µM (inactive) in the assay with UO-31.
On to `Cc1c(O)c(C)c2c(C)cn(C(=O)C(C)(C)C)c2c1C`, for which the GI50 was 21.6 µM (inactive) in the assay with IGROV-1; 17.3 µM (inactive) in the assay on HT-29; 27.3 µM (inactive) in the assay on U-251; 14.7 µM (inactive) in the assay with SK-MEL-5; 16.4 µM (inactive) with SF-539; 29.5 µM (inactive) in the assay on NCI-H460. Further, the GI50 in the assay with OVCAR-5 is 30.2 µM (inactive); in the assay on SK-OV-3, 22.2 µM (inactive); in the assay with HL-60 it was 18.7 µM (inactive); in the assay on MOLT-4, 23 µM (inactive); with SF-268 it was 31.4 µM (inactive); in the assay with OVCAR-8 it was 20.1 µM (inactive). In addition, the GI50 with MDA-N was 21.2 µM (inactive); in the assay on HCT-116, 21 µM (inactive); with RXF 393, 12.4 µM (inactive); in the assay on NCI-H226, 12.1 µM (inactive); with NCI-H23, 15.5 µM (inactive); in the assay with UO-31, 27.9 µM (inactive).
Consider `COC(=O)C1(Cc2ccccc2)Cc2ccccc2C1=O` (centres undefined), for which the GI50 was 72.8 µM (inactive) in the assay on IGROV-1; 45.3 µM (inactive) in the assay on HT-29; 27.7 µM (inactive) in the assay on U-251; 20 µM (inactive) in the assay with SK-MEL-5; > 100 µM (inactive) with SF-539; 46 µM (inactive) in the assay with NCI-H460. Further, the GI50 in the assay with OVCAR-5 was > 100 µM (inactive); with SK-OV-3, > 100 µM (inactive); in the assay on HL-60 it was 19.7 µM (inactive); with SR, 23.8 µM (inactive); in the assay with MOLT-4 it was 25.6 µM (inactive); in the assay with SF-268, 70.8 µM (inactive). For the same compound, the GI50 was 50.8 µM (inactive) with OVCAR-8; 32.1 µM (inactive) in the assay with MDA-N; 36.1 µM (inactive) in the assay on HCT-116; 35.6 µM (inactive) with NCI-H226; 45.8 µM (inactive) in the assay with NCI-H23; 23.3 µM (inactive) in the assay with UO-31.
Turning to `Cc1ccc(N2C(=O)C=C(C3=C(O)C(=O)N(c4ccc(C)cc4)C3=O)C2=O)cc1`, the GI50 in the assay on IGROV-1, in the assay on HT-29, in the assay on U-251, in the assay on SK-MEL-5, with NCI-H460 and in the assay on OVCAR-5 was > 100 µM (inactive) in each case. For the same compound, the GI50 in the assay on SK-OV-3, in the assay with HL-60, with SR, with MOLT-4, in the assay with SF-268 and in the assay on OVCAR-8 was > 100 µM (inactive) in each case. Moreover, the GI50 in the assay with MDA-N, in the assay on HCT-116, with NCI-H226, in the assay with NCI-H23 and in the assay with UO-31 was > 100 µM (inactive) each time.
As for `CC1CCC2C(C)C(OC(=O)CCC(=O)O)OC3OC4(C)CCC1C32OO4` (centres undefined), the GI50 is 10.4 µM (inactive) in the assay with IGROV-1; 3.52 µM (inactive) in the assay on HT-29; 2.98 µM (inactive) in the assay on U-251; 1.57 µM (inactive) in the assay with SK-MEL-5; 11 µM (inactive) in the assay with SF-539; 7.31 µM (inactive) with NCI-H460. Further, the GI50 with OVCAR-5 was 1.31 µM (inactive); in the assay on SK-OV-3, 53.6 µM (inactive); in the assay on HL-60, 0.427 µM (active); in the assay on SR it was 0.519 µM (active); with MOLT-4, 0.346 µM (active); in the assay with SF-268, 16.7 µM (inactive). Further, the GI50 in the assay on OVCAR-8 is 3.47 µM (inactive); in the assay with MDA-N, 2.65 µM (inactive); in the assay with HCT-116, 0.759 µM (active); in the assay on UO-31, 1.33 µM (inactive).
`CCOC(=O)C1C(c2ccc(OC)cc2)c2c(n[nH]c2O)CC1(O)OCC` (centres undefined): the GI50 in the assay with IGROV-1, in the assay on HT-29, with U-251, in the assay on SK-MEL-5, in the assay on SF-539 and in the assay on NCI-H460 was > 100 µM (inactive) in each case. Also, the GI50 in the assay with OVCAR-5, in the assay with HL-60, in the assay with SR, in the assay on MOLT-4, in the assay on SF-268 and in the assay with OVCAR-8 was > 100 µM (inactive) in each case. The GI50 in the assay on MDA-N, with HCT-116, with NCI-H23 and in the assay on UO-31 was > 100 µM (inactive) each time.
On to `Cn1c(=O)cc(NNc2ccc(Br)cc2)[nH]c1=O`, for which the GI50 in the assay with IGROV-1 is 11.1 µM (inactive); in the assay with HT-29, 3.53 µM (inactive); in the assay with U-251 it was 3.05 µM (inactive); in the assay with SK-MEL-5, 16.6 µM (inactive); in the assay with SF-539, 3.31 µM (inactive); in the assay on NCI-H460, 4.26 µM (inactive). Further, the GI50 with OVCAR-5 was 13.4 µM (inactive); in the assay with HL-60 it was 2.99 µM (inactive); with SR it was 3.43 µM (inactive); with MOLT-4, 0.558 µM (active); with OVCAR-8, 19.1 µM (inactive); in the assay on MDA-N it was 14.7 µM (inactive). Besides, the GI50 in the assay with HCT-116 is 10.4 µM (inactive); in the assay on NCI-H226 it was 18.2 µM (inactive); in the assay on UO-31, 16.4 µM (inactive).
On to `COc1cccc(-c2nc(O)c3ccccc3n2)c1OC`, for which the GI50 in the assay with IGROV-1, with HT-29, in the assay on U-251, with SK-MEL-5, in the assay on NCI-H460 and in the assay with OVCAR-5 was > 100 µM (inactive) in each case. Moreover, the GI50 in the assay on SK-OV-3, in the assay with SR, in the assay with MOLT-4, in the assay with SF-268, with OVCAR-8 and in the assay on MDA-N was > 100 µM (inactive) in each case. The GI50 with HCT-116, in the assay with RXF 393, in the assay with NCI-H226, with NCI-H23 and in the assay on UO-31 was > 100 µM (inactive) in each case.

Source of the values: ChEMBL document CHEMBL1201862, “PubChem BioAssay data set” (2004).
